Columns and labels:
Assay in all cases: relative viability (nuclei count vs DMSO), 5 days (fraction); higher = more cells survive
[1] = compound: C1CNCCC1C2=CC(=NN2)C3=CC=NC=C3 + N=C(N)NC(=N)NCCc1ccccc1 [Phenformin] (partner 250 µM)
Summary of the method: (§1)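 Lung cancer cell lines, seeded in 1536-well plates, were treated the following day by pin tool with a single drug or with five library-drug doses (not always all listed) in √10 steps on top of a fixed anchor-drug dose. Cells were fixed and nuclei stained in one step after 5 days, and nuclei were counted. Relative viability is the nuclei count for treated wells divided by that for vehicle wells, reported as medians of duplicate plates.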

[2] = compound: C[C@@H](N)c1ccc(C(=O)Nc2ccnc3[nH]ccc23)cc1 + CS(=O)(=O)CCNCc1ccc(-c2ccc3ncnc(Nc4ccc(OCc5cccc(F)c5)c(Cl)c4)c3c2)o1 [Lapatinib] (partner 2 µM)
Summary of the method: as §1

Tanzisertib + Phenformin = compound: O[C@H]1CC[C@H](Nc2ncc3nc(Nc4c(F)cc(F)cc4F)n([C@H]4CCOC4)c3n2)CC1 [Tanzisertib] + N=C(N)NC(=N)NCCc1ccccc1 [Phenformin] (partner 250 µM)
Summary of the method: as §1

Tanzisertib + Olaparib = compound: O[C@H]1CC[C@H](Nc2ncc3nc(Nc4c(F)cc(F)cc4F)n([C@H]4CCOC4)c3n2)CC1 [Tanzisertib] + O=C(c1cc(Cc2n[nH]c(=O)c3ccccc23)ccc1F)N1CCN(C(=O)C2CC2)CC1 [Olaparib] (partner 8 µM)
Summary of the method: as §1

Row | Cell Line | relative viability ([1]; first compound 0.08 µM) | relative viability ([1]; first compound 0.8 µM) | relative viability ([1]; first compound 2.53 µM) | relative viability ([1]; first compound 8 µM) | relative viability ([2]; first compound 0.04 µM) | relative viability ([2]; first compound 0.1265 µM) | relative viability ([2]; first compound 0.4 µM) | relative viability ([2]; first compound 1.265 µM) | relative viability ([2]; first compound 4 µM) | relative viability (Tanzisertib + Phenformin; first compound 0.08 µM) | relative viability (Tanzisertib + Phenformin; first compound 0.253 µM) | relative viability (Tanzisertib + Phenformin; first compound 0.8 µM) | relative viability (Tanzisertib + Phenformin; first compound 2.53 µM) | relative viability (Tanzisertib + Phenformin; first compound 8 µM) | relative viability (Tanzisertib + Olaparib; first compound 0.08 µM) | relative viability (Tanzisertib + Olaparib; first compound 0.253 µM) | relative viability (Tanzisertib + Olaparib; first compound 0.8 µM) | relative viability (Tanzisertib + Olaparib; first compound 2.53 µM) | relative viability (Tanzisertib + Olaparib; first compound 8 µM)
1 | NCI-H1437 | 0.34 | 0.313 | 0.298 | 0.299 | 0.842 | 0.782 | 0.825 | 0.772 | 0.737 | 0.287 | 0.314 | 0.303 | 0.276 | 0.283 | 0.634 | 0.647 | 0.669 | 0.652 | 0.619
2 | NCI-H1650 | 0.287 | 0.442 | 0.428 | 0.356 | 0.701 | 0.63 | 0.772 | 0.155 | 0.834 | 0.317 | 0.425 | 0.407 | 0.307 | 0.314 | 0.807 | 0.778 | 0.882 | 0.671 | 0.662
3 | NCI-H1651 | 0.351 | 0.3 | 0.333 | 0.344 | 1.04 | 0.859 | 0.975 | 0.784 | 0.967 | 0.327 | 0.371 | 0.305 | 0.322 | 0.332 | 0.206 | 0.182 | 0.196 | 0.2 | 0.175
4 | NCI-H1666 | 0.571 | 0.587 | 0.561 | 0.553 | 0.724 | 0.618 | 0.967 | 0.835 | 0.928 | 0.595 | 0.602 | 0.56 | 0.607 | 0.59 | 0.754 | 0.801 | 0.747 | 0.729 | 0.768
5 | NCI-H1734 | 0.348 | 0.421 | 0.36 | 0.401 | 1.02 | 1.15 | 1.01 | – | 1.12 | 0.469 | 0.406 | 0.356 | 0.387 | 0.334 | 0.66 | 0.626 | 0.604 | 0.671 | 0.687
6 | NCI-H1755 | 0.631 | – | 0.688 | 0.553 | 0.874 | 1 | 1.05 | 0.705 | 0.685 | 0.692 | 0.612 | 0.595 | 0.649 | 0.632 | 0.906 | 0.868 | 0.889 | 0.855 | 0.865
7 | NCI-H1792 | 0.231 | 0.237 | 0.38 | 0.227 | 0.923 | 0.922 | 0.966 | 0.607 | 0.783 | 0.233 | 0.467 | 0.544 | 0.38 | 0.475 | 0.813 | 0.572 | 0.498 | 0.345 | 0.436
8 | NCI-H1793 | 0.307 | 0.162 | 0.441 | 0.426 | 0.828 | 0.564 | 0.907 | – | 0.888 | 0.448 | 0.339 | 0.41 | 0.379 | 0.367 | 0.876 | 0.807 | 0.873 | 0.77 | 0.592
9 | NCI-H1915 | 0.376 | 0.389 | 0.346 | 0.377 | 0.908 | 0.972 | 0.966 | – | 0.848 | 0.4 | 0.355 | 0.364 | 0.365 | 0.291 | 0.29 | 0.271 | 0.244 | 0.245 | 0.25
10 | NCI-H1944 | 0.18 | 0.185 | 0.209 | 0.173 | 0.759 | 0.841 | 0.769 | – | 0.699 | 0.23 | 0.197 | 0.21 | 0.198 | 0.203 | 0.462 | 0.412 | 0.377 | 0.44 | 0.385
11 | NCI-H1975 | 0.406 | 0.412 | 0.415 | 0.417 | 0.833 | 0.765 | 0.922 | 0.88 | 0.546 | 0.419 | 0.404 | 0.409 | 0.424 | 0.441 | 0.898 | 0.836 | 0.807 | 0.818 | 0.752
12 | NCI-H1993 | 0.497 | 0.488 | 0.547 | 0.533 | 0.791 | 0.858 | – | 0.776 | 0.87 | 0.484 | 0.508 | 0.49 | 0.491 | 0.537 | 0.985 | 0.928 | 1.17 | 1.04 | 0.766
13 | NCI-H2009 | 0.481 | 0.528 | 0.51 | 0.489 | 0.682 | 0.736 | 0.916 | 0.114 | 0.747 | 0.52 | 0.483 | 0.515 | 0.593 | 0.553 | 0.634 | 0.734 | 0.743 | 0.73 | 0.752
14 | NCI-H2023 | 0.357 | 0.411 | 0.498 | 0.423 | 0.844 | 0.737 | 1.15 | 0.0713 | 0.99 | 0.427 | 0.37 | 0.407 | 0.411 | 0.404 | 0.523 | 0.47 | 0.497 | 0.44 | 0.452
15 | NCI-H2085 | 0.744 | 0.418 | 0.801 | 0.817 | 0.841 | 0.729 | 0.872 | 0.546 | 0.799 | 0.739 | 0.724 | 0.81 | 0.715 | 0.461 | – | 0.763 | 0.745 | 0.803 | 0.76
16 | NCI-H2087 | 0.459 | 0.479 | 0.496 | 0.479 | 0.85 | 1.22 | 0.831 | 0.148 | 0.825 | 0.464 | 0.502 | 0.463 | 0.447 | 0.322 | 0.552 | 0.576 | 0.501 | 0.52 | 0.588
17 | NCI-H2126 | 0.483 | 0.51 | 0.556 | 0.577 | 0.825 | 0.866 | 0.764 | 0.859 | 0.966 | 0.566 | 0.548 | 0.545 | 0.534 | 0.516 | 0.913 | 0.919 | 0.987 | 0.873 | 0.938
18 | NCI-H2170 | 0.433 | 0.394 | 0.456 | 0.441 | 0.28 | 0.273 | 0.302 | 0.323 | 0.26 | 0.406 | 0.451 | 0.457 | 0.411 | 0.392 | 0.669 | 0.569 | 0.601 | 0.604 | 0.53
19 | NCI-H2228 | 0.328 | 0.368 | 0.286 | 0.359 | 1.18 | 1.09 | 1.2 | 1.17 | 0.868 | 0.399 | 0.279 | 0.397 | 0.275 | 0.227 | 0.579 | 0.506 | 0.556 | 0.788 | 0.496
20 | NCI-H2347 | 0.398 | 0.225 | 0.412 | 0.48 | 0.833 | 0.959 | 0.933 | 0.347 | 0.868 | 0.445 | – | 0.434 | 0.306 | 0.376 | 0.628 | 0.626 | 0.593 | 0.677 | 0.766
21 | NCI-H2405 | 0.44 | 0.285 | 0.385 | 0.383 | – | 1.18 | 1.05 | 0.487 | 0.351 | 0.454 | 0.393 | 0.426 | 0.385 | 0.345 | 0.924 | 0.902 | 0.869 | 1.03 | 0.869
22 | NCI-H3122 | 0.329 | 0.414 | 0.402 | 0.364 | 0.966 | 1.04 | 1.08 | 0.875 | 0.981 | 0.398 | 0.423 | 0.378 | 0.426 | 0.314 | 0.708 | 0.587 | 0.634 | 0.583 | 0.62
23 | PC-3 [JPC-3] | 0.499 | 0.447 | 0.494 | 0.463 | 0.538 | 0.545 | 0.505 | 0.529 | 0.536 | 0.488 | 0.492 | 0.509 | 0.494 | 0.461 | 1.18 | 1.21 | 1.19 | 1.18 | 1.04
24 | PC-14 | 0.529 | 0.684 | 0.743 | 0.579 | 0.292 | 0.344 | 0.295 | 0.271 | 0.329 | 0.471 | 0.746 | 0.671 | 0.599 | 0.115 | 0.343 | 0.228 | 0.402 | 0.271 | 0.246
25 | RERF-LC-KJ | 0.391 | 0.429 | 0.438 | 0.406 | 0.906 | 0.837 | 0.931 | 0.902 | 0.869 | 0.45 | 0.39 | 0.439 | 0.4 | 0.384 | 0.997 | 0.925 | 0.942 | 0.94 | 0.912
26 | SK-LU-1 | 0.498 | 0.41 | 0.529 | 0.57 | 0.847 | 0.85 | 0.906 | 0.828 | 0.779 | 0.694 | 0.542 | 0.566 | 0.509 | 0.561 | 0.502 | 0.538 | 0.453 | 0.491 | 0.373
27 | SK-MES-1 | 0.635 | 0.68 | 0.634 | 0.603 | 0.518 | 0.459 | 0.428 | 0.423 | 0.444 | 0.683 | 0.637 | 0.663 | 0.645 | 0.632 | 0.699 | 0.709 | 0.742 | 0.653 | 0.624
28 | SW 1573 | – | 0.365 | 0.376 | 0.471 | 1.3 | 1.14 | 1.18 | 1.04 | 1.08 | 0.457 | 0.305 | 0.347 | 0.417 | 0.356 | 0.453 | 0.406 | 0.475 | 0.455 | 0.443

— the supplement of paper PMC10307832
